According to patent US20210395327A1, “Growth Hormone-Releasing Hormone Antagonists and Uses Thereof” (United States Government As Represented By The Department …, priority 2019, published 2021):
Entries after “also recorded” stand apart in the source; their conditions may differ. Non-standard residues stand in square brackets, D forms with d. Residues, ends and D or L forms follow the SMILES beside them. *: point of attachment. Phe(F5) = N[C@@H](Cc1c(F)c(F)c(F)c(F)c1F)C(=O)O; hArg = N=C(N)NCCCC[C@H](N)C(=O)O; 12Ado = NCCCCCCCCCCCC(=O)O; Nle = CCCC[C@H](N)C(=O)O; Orn = NCCC[C@H](N)C(=O)O; Abu = CC[C@H](N)C(=O)O; PhAc = O=C(Cc1ccccc1)*

Legend:
[1] = tested on: RT4 urothelial cancer cells; test: In vitro cell viability, RT4; type: cell-based, human; conditions: antagonist 5 μM for 72 h, cell proliferation assay; MIA602 = 1
Protocol: The inhibitory effects of the various synthesized GHRH antagonists were tested in cell proliferation assays in various human cancer cell lines including stomach cancer (KATOIII, N87), colon cancer (HT-29), urothelial cancer (J82, RT4), pancreatic cancer (PANC-1, CFPAC-1), prostatic cancer (PC3), breast cancer (MX-1, HCC1806), ovarian cancer (SK-OV-3, OVCAR-3) and lung cancer (HCC827, H460).
Cell culture. Human cancer cell lines including pancreatic (PANC-1 and CFPAC-1), lung (HCC827 and H460), stomach (NCI-N87 and KATOIII), urothelial (J82, RT4), prostatic (PC3), breast (MX-1 and HCC 1806), colorectal (HT-29), and ovarian (SK-OV-3 and OVCAR-3) were obtained from the American Type Culture Collection (ATCC) and cultured at 37° C. in a humidified 95% air/5% CO2 atmosphere in the medium recommended by ATCC.
In vitro cell viability. Cell viability was analyzed as follows: cancer cells including pancreatic (PANC-1 and CFPAC-1), lung (HCC827 and H460), stomach (NCI-N87 and KATOIII), urothelial (J82, RT4), prostatic (PC3) and breast (MX-1 and HCC 1806), colorectal (HT-29) and ovarian (SK-OV-3 and OVCAR-3) were grown on 96 well plates to ˜60% confluence, the cells were starved for 24 h in culture medium containing 0.5% FBS. Cells were then treated with GHRH antagonists MIA602 AVR compounds at concentrations of 1, 2.5 or 5 μM, or vehicle (0.1% DMSO) in quintuplicates for 72 hours. The medium was replaced every 48 hours. Cell viability was measured using CellTiter 96 aqueous one solution kit (Promega). Inhibitory effects of tested AVR compounds in comparison to that of MIA602 are presented as inhibitory potency.
Inhibitory effects of selected AVR compounds in comparison to that of MIA602 are presented as inhibitory potency (e.g., percentage of inhibition). […] The cell lines tested including lung cancer HCC827 (FIG. 2A), pancreatic cancer CFPAC-1 (FIG. 2B), stomach cancer N87 (FIG. 2C), colon cancer HT-29 (FIG. 2D), breast cancers MX-1 and HCC1806 (FIGS. 2 E, F). […]

[2] = tested on: bleomycin-induced lung fibrosis (lung hydroxyproline content); test: Bleomycin mouse model, lung hydroxyproline assay; type: in vivo, C57Bl/6J mice; conditions: bleomycin IP
Protocol: Abstract. Purpose. Growth hormone-releasing hormone (GHRH) is a 44-amino acid peptide that regulates growth hormone (GH) secretion. It was tested whether a GHRH receptor (GHRH-R) antagonist, MIA-602, would inhibit bleomycin-induced lung inflammation and/or fibrosis in C57Bl/6J mice. Methods. It was tested whether MIA-602 (5 μg or vehicle given subcutaneously [SC] on days 1-21) would decrease lung inflammation (at day 14) and/or fibrosis (at day 28) in mice treated with intraperitoneal (IP) bleomycin (0.8 units on days 1, 3, 7, 10, 14 and 21). […] Results. Inflammation (histopathologic scores assessed blindly) was less evident in mice treated with MIA-602 for 14 days. […] GHRH-R antagonist increased basal and maximal oxygen consumption of cultured lung fibroblasts. […] Conclusions. MIA-602 reduced lung inflammation and fibrosis due to bleomycin.
Experimental animals. 8-week old C57Bl/6J male mice (The Jackson Laboratory, Bar Harbor, Me.) were used in these experiments. Mice weighed about 26 grams at the start. Mice were randomly allocated to the experimental groups and housed in identical filter top cages in a ventilated rack. Mice were exposed to a 12-hour light/dark cycle and had free access to standard laboratory chow and water. […]
Hydroxyproline assay. […] Hydroxyproline was measured colorimetrically (560 nm) after hydrolysis using an assay kit (MAK008, Sigma-Aldrich, St. Louis, Mo.). […]

[3] = tested on: bleomycin-induced lung infiltrates; test: Bleomycin mouse model, micro-CT of lungs; type: in vivo, C57Bl/6J mice; conditions: bleomycin plus MIA-602 vs vehicle
Protocol: Bleomycin and GHRH-R antagonist treatment. Mice were treated with 0.8 units of bleomycin (Bleomycin for Injection USP, Hospira, Lake Forest, Ill.) intraperitoneally (IP) on days 1, 3, 7, 10, 14 and 21 (Collins S, Chan-Li Y, Oh M, Vigeland C, Limjunyawong N, Mitzner W, Powell J D, Horton M R (2016). JCI Insight 1(4):1-13). Mice (randomly assigned) were simultaneously treated subcutaneously (sc) with MIA-602 (5 μg/day) or its vehicle (100 μL/day). MIA-602 was dissolved in DMSO (ACS grade; Sigma-Aldrich) and diluted 1:500 in normal saline for daily sc injection on days 0-21.
Tissue preparations. Mice were killed by CO2 inhalation before any treatment, or on days 14 or 28 for micro-CT scans of lungs and harvesting of lung tissue (Vande Vel de G, Poelmans J, De Langhe E, Hillen A, Vanoirbeek J, Himmelreich U, Lories R (2016). Dis Model Mech 9:91). The right mainstem bronchus was ligated and the right lung removed and frozen at −80° C. for hydroxyproline (HP) assays. The left lung was filled with 10% buffered formalin at […] cm H2O pressure, the bronchus ligated, and the lung fixed in formalin. Fixed lungs were embedded in wax and 5 μm sections stained with hematoxylin and eosin (H&E) or Masson's trichrome stain.
Micro-CT. Mice in each group were assessed by micro-CT scans (Bruker SkyScan 1176 Low Dose Micro-CT, Knotich, Belgium) of the lungs after CO2 inhalation. […]

CCCC[C@H](NC(=O)[C@@H](NC(=O)[C@H](CC(=O)O)NC(=O)[C@H](CCC(N)=O)NC(=O)[C@H](CC(C)C)NC(=O)[C@H](CC(C)C)NC(=O)[C@H](CCCN)NC(=O)[C@H](Cc1c[nH]cn1)NC(=O)[C@H](C)NC(=O)[C@H](CO)NC(=O)[C@H](CC(C)C)NC(=O)[C@H](CCC(N)=O)NC(=O)[C@H](CC)NC(=O)[C@H](CC(C)C)NC(=O)[C@@H](NC(=O)[C@H](CCCN)NC(=O)[C@H](Cc1c[nH]cn1)NC(=O)[C@H](Cc1ccc(OC)cc1)NC(=O)[C@H](CCCCNC(=N)N)NC(=O)[C@H](C)NC(=O)[C@@H](NC(=O)[C@H](Cc1c(F)c(F)c(F)c(F)c1F)NC(=O)[C@@H](NC(=O)[C@H](C)NC(=O)[C@H](CC(=O)O)NC(=O)[C@@H](CCCNC(=N)N)NC(=O)[C@H](Cc1ccc(O)cc1)NC(=O)CCCCCCCCCCCNC(=O)Cc1ccccc1)[C@@H](C)CC)[C@@H](C)O)C(C)C)[C@@H](C)CC)C(=O)N[C@H](CCCNC(=N)N)C(=O)N[C@@H](CCCCNC(=N)N)C(N)=O [MIA-602, PhAC-Ada, Tyr D-Arg, Asp, Ala, Ile, 5FPhe, Thr, Ala, Har, Tyr(Me), His, Orn, Val, Leu, Abu, Gin, Leu, Ser, Ala, His, Om, Leu, Leu, Gin, Asp, Ile; Nle, D-Arg, Har NH2, reference compound] ({PhAc-12Ado}-Y[dR]DAI[Phe(F5)]TA[hArg]Y(Me)H[Orn]VL[Abu]QLSAH[Orn]LLQDI[Nle][dR][hArg]-NH2)
relative inhibitory potency in comparison to MIA-602, Urothelial RT4 [1]: 1
lung hydroxyproline (HP) content, change (in words) ([2]; 14 days, MIA-602 5 μg/day sc): did not increase significantly
lung hydroxyproline (HP) content, change (in words) ([2]; 28 days, MIA-602 5 μg/day sc days 1-21, right lung): increased significantly in bleomycin-treated mice that received vehicle, but not in bleomycin-treated mice that received MIA-602; also recorded: No significant increase in HP content
infiltrative densities in lungs, micro-CT (in words) [3]: less prominent infiltrative densities
